Laboratory results published in PubChem BioAssay (NCI).
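Cultured in 96-well plates, cells were exposed to test compound for 48 hours across five concentrations. TGI marks complete inhibition of growth.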

Legend:
Assay in all cases: NCI anticancer screen, dose series, 48 h
OVCAR-8 ovarian = test system: OVCAR-8 ovarian
SK-MEL-2 melanoma = test system: SK-MEL-2 melanoma
HT29 colon = test system: HT29 colon
NCI-H460 lung = test system: NCI-H460 lung
CAKI-1 renal = test system: CAKI-1 renal
NCI/ADR-RES ovarian = test system: NCI/ADR-RES ovarian
RXF 393 renal = test system: RXF 393 renal
ACHN renal = test system: ACHN renal
OVCAR-5 ovarian = test system: OVCAR-5 ovarian
SK-MEL-28 melanoma = test system: SK-MEL-28 melanoma
OVCAR-3 ovarian = test system: OVCAR-3 ovarian
NCI-H226 lung = test system: NCI-H226 lung

SMILES	TGI (OVCAR-8 ovarian) [µM]	TGI (SK-MEL-2 melanoma) [µM]	TGI (HT29 colon) [µM]	TGI (NCI-H460 lung) [µM]	TGI (CAKI-1 renal) [µM]	TGI (NCI/ADR-RES ovarian) [µM]	TGI (RXF 393 renal) [µM]	TGI (ACHN renal) [µM]	TGI (OVCAR-5 ovarian) [µM]	TGI (SK-MEL-28 melanoma) [µM]	TGI (OVCAR-3 ovarian) [µM]	TGI (NCI-H226 lung) [µM]
CCOC(=O)c1sc2nc1CSc1sc(=S)sc1SCc1nc(sc1C(=O)OCC)-c1nc(c(C(=O)OCC)s1)CSc1sc(=S)sc1SCc1nc-2sc1C(=O)OCC	> 10	> 10	> 10	> 10	> 10	> 10	> 10	> 10	> 10	> 10	> 10	
O=C(Nc1cccc(C(=O)NCCCO)c1)/C(=C/c1ccccc1)NC(=O)c1ccccc1	> 100	> 100	> 100	> 100	> 100	> 100	> 100	> 100	> 100	> 100	> 100	> 100
C=C(Cl)C(C)(Cl)CCC(Cl)C(C)C (stereo not given)		> 100	> 100	> 100	> 100	> 100	> 100	> 100	> 100	> 100	> 100	> 100
NC(=O)Cn1c(=O)oc2cc(C(=O)CN3CCOCC3)ccc21	> 100	> 100	> 100		> 100	> 100	> 100		> 100	> 100	> 100	> 100
CC1(C)CCCCCCCCCC2CC2CCC(C)(C)C1=O (stereo not given)	74.5	34.5	39.6	46	> 100	44.3	29.3	33.4	40	72.8	25.9	31.2
CCOC(=O)C(NC(=O)CC)(Nc1ccc(F)cc1F)C(F)(F)F (stereo not given)	> 100	> 100	> 100			> 100	> 100	> 100	> 100	> 100		
COC(=O)/N=[N+](\[O-])C(c1ccccc1)c1ccccc1	> 100	> 100	> 100	> 100	> 100	> 100	> 100		> 100	> 100	> 100	> 100
CC(=O)Nc1cc2nc3n(c2cc1C)CCC3OC(C)=O (stereo not given)	> 100	> 100	> 100	> 100	> 100	> 100	> 100	> 100	> 100	> 100	> 100	> 100
C[N+]12C=CC=C1C(N1CCCC1)c1scc(-c3ccc(F)cc3)c12 (stereo not given)	> 100	49	45.3		> 100	> 100	> 100		> 100	> 100	> 100	> 100
CC(=O)NC1COC(COC(=O)CCCCCCCCCCNC(=O)c2ccc([N+](=O)[O-])c3c(=O)c4ccccc4[nH]c23)C(O)C1OC(C)C(=O)NC(C(=O)NC(CCC(N)=O)C(=O)OCc1ccccc1)C(C)C (stereo not given)	44.1	28.7	22.2	39.7	23.4	> 94.5	23.2	39.4	> 81.5	41.7	9.57	85.5
Cc1cccc(C)c1N=Nc1ccc(O)c(CN(C)C)c1	> 100	88.8	69.6	> 100	> 100	> 100	46	> 100	> 100	60.6	> 100	> 100
CN(C)CC1CCC/C(=C\c2ccccc2)C1=O (stereo not given)	14.7	18.9	3.18	16.9	3.2	41.6	7.38	12.6	29	6.04	3.75	8.26
C(#CC1(Nc2ccccc2)CCN(Cc2ccccc2)CC1)C1(Nc2ccccc2)CCN(Cc2ccccc2)CC1	53.5	20.1	39.4	> 46.4	44.5	> 100	25.7	> 56.2	> 56.2	26.7	> 97.1	> 56.2
O=S(=O)(CCC[C@H]1[C@@H](CCOCc2ccccc2)C2CCCN1O2)c1ccccc1 (stereo not given in full)	> 100		> 100	> 100	> 100	> 100	> 100	> 100	> 100	> 100	> 100	> 100
COc1cc(CNc2c3ccccc3nc3ccccc23)cc(OC)c1OC	14	5.66	14.3	8.18	14.1	14.2	9.04	14.4	14.6	20.2	30.2	10.3
C/C=C\C(CC(=O)OC)CC(=O)N(CCC1CN(S(=O)(=O)C(F)(F)F)c2ccccc21)Cc1ccc(OC)cc1OC (stereo not given)		> 100		> 100	> 100	> 100	> 100	> 100	> 100	> 100	> 100	> 100
NC(=O)CCC(NC(=O)c1c2ccccc2nc2ccccc12)C(=O)O (stereo not given)	> 100	> 100	> 100	> 100	> 100	> 100		> 100	> 100	> 100	> 100	> 100
Cc1cc(C)nc(NS(=O)(=O)c2ccc(NC(=O)NC(F)(F)F)cc2)n1	> 100	> 100	> 100		72.8	> 100	> 100	> 100	> 100	> 100		
O=C(CN=C(CN(c1ccccc1)c1ccccc1)Oc1ccc(Cl)cc1Cl)n1ccnc1	> 100	> 100	> 100	> 100		> 100	> 100	> 100	> 100	> 100	> 100	> 100
O=C(O)C12CCC(CC1=O)C2 (stereo not given)	> 100	> 100	> 100	> 100	> 100	> 100		> 100	> 100	> 100	> 100	> 100
